Data on two molecules can be found in patent publication US20090232771A1, “Method of controlling cell functions” (Takeda Pharmaceutical Company Limited, priority 2004, published 2009).

Assay [1] has as its system human mesenchymal stem cells. As to the kind of experiment: Differentiation of human mesenchymal stem cells into adipocytes, Oil Red O staining of accumulated intracellular lipids. Type of assay: cell-based. Conditions: cholecystokinin 100 nM in differentiation induction medium; compared to cholecystokinin-free control; FIG. 1. On the procedure:
Human mesenchymal stem cells were incubated in a 24-well culture plate until the cells became confluent. Then, the medium was exchanged with a differentiation induction medium prepared by adding cholecystokinin (100 nM) to high-glucose DMEM medium supplemented with insulin, dexamethasone, isobutylmethylxanthine, indomethacin, antibiotic and 10% fetal bovine serum, and incubation was continued for 3 days. For control, a cholecystokinin-free differentiation induction medium was used. After incubation was conducted for 3 days in a high-glucose DMEM medium (adipocyte maintenance medium) supplemented only with insulin, antibiotic and 10% fetal bovine serum, the same treatments (the induction and the maintenance, respectively, for 3 days) were repeated. Accumulated intracellular lipids were visualized by staining with Oil Red 0 dye.

In assay [2] the test system is human mesenchymal stem cells. As to the kind of experiment: Osteoblast differentiation induction from human mesenchymal stem cells, accumulated calcium level per well (Calcium C-Test). The class given is cell-based. Conditions: oncostatin M added (10 ng/ml); irrespective of presence or absence of FBS; compared to 10% FBS-containing differentiation medium without oncostatin M; FIG. 2. As to the method: Human mesenchymal stem cells were purchased from Cambrex, Inc. Dulbecco's Modified Eagle Medium (DMEM, Invitrogen) containing 1.0 g/l of glucose and supplemented with 10% fetal bovine serum (Stem Cell Technologies), 2 mM L-glutamine (Invitrogen), 100 U/ml penicillin and 100 μg/ml streptomycin was used as a maintenance medium. The maintenance medium supplemented with 0.1 μM dexamethasone, 0.05 mM ascorbic acid and 10 mM β-glycerophosphate (=10% FBS-containing differentiation medium) or fetal bovine serum-free maintenance medium supplemented with the three components above was used as a differentiation medium (=serum-free differentiation medium). […] Subsequently, the medium was exchanged every 4 days, and the accumulated calcium level per well was quantified on day 10 of the incubation (Calcium C-Test, Wako Pure Chemical).

Consider “cholecystokinin (DYMGWMDF) [ligand of the cholecystokinin receptor]”, for which the “lipid accumulation (accumulated intracellular lipids, Oil Red O staining) compared to control” value in assay [1] was “lipid accumulation is enhanced”.

B1: oncostatin M (protein, UniProt P13725 26-221, looked up)
Oncostatin-M: AAIGSCSKEYRVLLGQLQKQTDLMQDTSRLLDPYIRIQGLDVPKLREHCRERPGAFPSEETLRGLGRRGFLQTLNATLGCVLHRLADLEQRLPKAQDLERSGLNIEDLEKLQMARPNILGLRNNIYCMAQLLDNSDTAEPTKAGRGASQPPTPTPASDAFQRKLEGCRFLHGYHRFMHSVGRVFSKWGESPNRSRR
notes: differentiation induction factor for osteoblasts from human mesenchymal stem cells in serum-free medium
As to B1, in assay [2], the “accumulation of calcium per well on day 10 of the incubation” value is “marked accumulation of calcium was observed”.
